In brackets after ≈: the same amount, converted by molar mass.
Tests used:
[1] = test system: Escherichia coli; test: Antimicrobial activity against Escherichia coli 9612 using 3.7 X 10^4 CFU inoculum by agar dilution method; format: functional
[2] = test system: Staphylococcus aureus; test: Antimicrobial activity against methicillin-susceptible Staphylococcus aureus ATCC 29213 using 1.5 X 10^5 CFU inoculum by agar dilution method; format: functional
[3] = test system: Staphylococcus aureus; test: Antimicrobial activity against methicillin-resistant Staphylococcus aureus 9344 using 2.5 X 10^5 CFU inoculum by agar dilution method; format: functional
[4] = test system: Staphylococcus aureus; test: Antimicrobial activity against methicillin-susceptible Staphylococcus aureus 15 using 2.5 X 10^5 CFU inoculum by agar dilution method; format: functional
[5] = test system: Enterococcus faecalis; test: Antimicrobial activity against Enterococcus faecalis ATCC 29212 using 2.8 X 10^7 by agar dilution method; format: functional
[6] = test system: Enterococcus faecalis; test: Antimicrobial activity against Enterococcus faecalis HH22 using 1.8 X 10^8 by agar dilution method; format: functional
[7] = test system: Escherichia coli; test: Antimicrobial activity against Escherichia coli ATCC 25922 infected in CD-1 ICR mouse using 1 X 10^5 CFU inoculum; format: functional
[8] = test system: Escherichia coli; test: Antimicrobial activity against Escherichia coli 9612 infected in CD-1 ICR mouse using 3.7 X 10^4 CFU inoculum; format: functional
[9] = test system: Escherichia coli; test: Antimicrobial activity against Escherichia coli 1515 infected in CD-1 ICR mouse using 2.4 X 10^6 CFU inoculum; format: functional
[10] = test system: Klebsiella pneumoniae; test: Antimicrobial activity against Klebsiella pneumoniae 935 infected in CD-1 ICR mouse using 3 X 10^5 CFU inoculum; format: functional
[11] = test system: Klebsiella pneumoniae; test: Antimicrobial activity against Klebsiella pneumoniae 967 infected in CD-1 ICR mouse using 2.6 X 10^5 CFU inoculum; format: functional
[12] = test system: Staphylococcus aureus; test: Antimicrobial activity against methicillin-susceptible Staphylococcus aureus ATCC 29213 infected in CD-1 ICR mouse using 1.5 X 10^5 CFU inoculum; format: functional
[13] = test system: Staphylococcus aureus; test: Antimicrobial activity against methicillin-resistant Staphylococcus aureus 9344 infected in CD-1 ICR mouse using 2.5 X 10^5 CFU inoculum; format: functional
[14] = test system: Staphylococcus aureus; test: Antimicrobial activity against methicillin-susceptible Staphylococcus aureus 15 infected in CD-1 ICR mouse using 2.5 X 10^5 CFU inoculum; format: functional
[15] = test system: Enterococcus faecalis; test: Antimicrobial activity against Enterococcus faecalis ATCC 29212 infected in CD-1 ICR mouse using 2.8 X 10^7 inoculum; format: functional
[16] = test system: Enterococcus faecalis; test: Antimicrobial activity against Enterococcus faecalis HH22 infected in CD-1 ICR mouse using 1.8 X 10^8 inoculum; format: functional
[17] = test system: Escherichia coli; test: Antimicrobial activity against Escherichia coli 9612 infected in new Zealand white rabbit with skin burn injury assessed as decrease in bacterial load in burn wound at 0.5 mg/ml after 24 hrs (reference value: 8.57 +/- 0.35 log10CFU/g); format: functional
[18] = test system: Escherichia coli; test: Antimicrobial activity against Escherichia coli 9612 infected in new Zealand white rabbit with skin burn injury assessed as decrease in bacterial load in burn wound at 2 mg/ml after 24 hrs (reference value: 8.57 +/- 0.35 log10CFU/g); format: functional
[19] = test system: Escherichia coli; test: Antimicrobial activity against Escherichia coli 9612 infected in CD-1 ICR mouse assessed as decrease in bacterial load in kidney at 20 mg/kg, sc after 72 hrs (reference value: 4.45 +/- 0.37 log10CFU/g); format: functional; settings: route subcutaneous
[20] = test system: Escherichia coli; test: Antimicrobial activity against Escherichia coli 9612 infected in CD-1 ICR mouse assessed as decrease in bacterial load in kidney at 12 mg/kg, sc after 72 hrs (reference value: 4.45 +/- 0.37 log10CFU/g); format: functional; settings: route subcutaneous
[21] = test system: Escherichia coli; test: Antimicrobial activity against Escherichia coli 9612 infected in CD-1 ICR mouse assessed as decrease in bacterial load in kidney at 7.2 mg/kg, sc after 72 hrs (reference value: 4.45 +/- 0.37 log10CFU/g); format: functional; settings: route subcutaneous
[22] = test system: Escherichia coli; test: Antimicrobial activity against Escherichia coli 9612 infected in CD-1 ICR mouse assessed as decrease in bacterial load in kidney at 4.32 mg/kg, sc after 72 hrs (reference value: 4.45 +/- 0.37 log10CFU/g); format: functional; settings: route subcutaneous
[23] = test system: Escherichia coli; test: Antimicrobial activity against Escherichia coli 9612 infected in CD-1 ICR mouse assessed as decrease in bacterial load in kidney at 2.59 mg/kg, sc after 72 hrs (reference value: 4.45 +/- 0.37 log10CFU/g); format: functional; settings: route subcutaneous
[24] = test system: Escherichia coli; test: microbe, parasite or virus in culture; settings: ATCC 25922
Description: Antimicrobial activity against Escherichia coli ATCC 25922 using 1 X 10^5 CFU inoculum by agar dilution method

[25] = test system: Escherichia coli; test: microbe, parasite or virus in culture; settings: 1515
Description: Antimicrobial activity against Escherichia coli 1515 using 2.4 X 10^6 CFU inoculum by agar dilution method

[26] = test system: Klebsiella pneumoniae; test: microbe, parasite or virus in culture; settings: 935
Description: Antimicrobial activity against Klebsiella pneumoniae 935 using 3 X 10^5 CFU inoculum by agar dilution method

[27] = test system: Klebsiella pneumoniae; test: microbe, parasite or virus in culture; settings: 967
Description: Antimicrobial activity against Klebsiella pneumoniae 967 using 2.6 X 10^5 CFU inoculum by agar dilution method

Compound	MIC [1] [µg/mL]	MIC [2] [µg/mL]	MIC [3] [µg/mL]	MIC [4] [µg/mL]	MIC [5] [µg/mL]	MIC [6] [µg/mL]	ED50 [7] [mg/kg]	ED50 [8] [mg/kg]	ED50 [9] [mg/kg]	ED50 [10] [mg/kg]	ED50 [11] [mg/kg]	ED50 [12] [mg/kg]	ED50 [13] [mg/kg]	ED50 [14] [mg/kg]	ED50 [15] [mg/kg]	ED50 [16] [mg/kg]	MIC [24] [µg/mL]	MIC [25] [µg/mL]	MIC [26] [µg/mL]	MIC [27] [µg/mL]	other results
CCN[C@@H]1C[C@H](N)[C@@H](O[C@@H]2OC(C(C)N)=CC[C@@H]2N)[C@H](O)[C@H]1O[C@H]1OC[C@](C)(O)[C@H](NC)[C@H]1O (stereo partly drawn) [VERTILMICIN]	0.5 (≈ 1.02 µM)	0.125 (≈ 0.255 µM)	0.25 (≈ 0.511 µM)	0.125 (≈ 0.255 µM)	8 (≈ 16.3 µM)	8 (≈ 16.3 µM)	0.82	0.67	0.63	0.29	0.18	0.25	0.99	0.7	4.35	7.11	0.5 (≈ 1.02 µM)	0.5 (≈ 1.02 µM)	0.5 (≈ 1.02 µM)	0.25 (≈ 0.511 µM)	log10CFU/g [17]: 6.33; log10CFU/g [18]: 5; log10CFU/g [19]: 2.36; log10CFU/g [20]: 3.11; log10CFU/g [21]: 3.07; log10CFU/g [22]: 3.22; log10CFU/g [23]: 3.32
GENTAMICIN	8	0.125	0.25	0.125	8	> 128	1.5	7.88	1.11	0.68	0.32	0.6	2.84	0.61	17.5	> 100					
CN[C@@H]1[C@@H](O)[C@@H](O[C@@H]2[C@@H](O)[C@H](O[C@@H]3OC(C(C)N)=CC[C@@H]3N)[C@@H](N)C[C@H]2N)OC[C@]1(C)O (stereo partly drawn) [VERDAMICIN]	4 (≈ 8.67 µM)	0.125 (≈ 0.271 µM)	0.25 (≈ 0.542 µM)	0.125 (≈ 0.271 µM)	8 (≈ 17.3 µM)	> 128	1.09	2.66	0.49	0.29	0.16	0.23	1.33	0.66	5.24	> 100	0.5 (≈ 1.08 µM)	0.5 (≈ 1.08 µM)	0.5 (≈ 1.08 µM)	0.25 (≈ 0.542 µM)	
CCN[C@@H]1C[C@H](N)[C@@H](O[C@H]2OC(CN)=CC[C@H]2N)[C@H](O)[C@H]1O[C@H]1OC[C@](C)(O)[C@H](NC)[C@H]1O [NETILMICIN]	0.5 (≈ 1.05 µM)	0.125 (≈ 0.263 µM)	0.25 (≈ 0.526 µM)	0.125 (≈ 0.263 µM)	8 (≈ 16.8 µM)	8 (≈ 16.8 µM)	0.77	0.63	0.46	0.33	0.17	0.26	0.88	0.49	3.44	6.56	0.5 (≈ 1.05 µM)	0.5 (≈ 1.05 µM)	0.5 (≈ 1.05 µM)	0.5 (≈ 1.05 µM)	
